# Reference: patent US10856562B2, “Flavor composition and edible compositions containing same” (MARS, INCORPORATED, priority 2013, dated 2020)
# Square brackets hold non-standard residues; d marks the D form. Ends that are not written are not given here. pGlu = O=C1CC[C@@H](C(=O)O)N1
# System: panelists
# Test: Attribute perception scores of flavor enhancers in solution (Example 6)
# Assay type: in vivo, human
# Set-up: key to Metallic / Numbing / Atringent / Salt / Sweet / Sour / Bitter / Umami / Sour, mean evaluation score in solution / Numbing, mean evaluation score in solution / Astringent / Umami FF: 15-point intensity scale, 0 = none, 15 = very strong
# Conditions: for Astringent / Bitter / Flinty/Mineral / Metallic / Numbing / Salt / Sour / Sweet / Umami / Umami FF / Atringent / Mineral/Flinty / Umami/brothy: solution
# [1] = 1.0 to 100 ppb, listed as FE 38
# [2] = 10.0 ppb, mean evaluation score
# [3] = 100.0 ppb, mean evaluation score
# [4] = Concentration 1, MAX, 15-point scale
# [5] = Concentration 1, MEAN, 15-point scale
# [6] = Concentration 1, MIN, 15-point scale
# [7] = Concentration 10, MAX, 15-point scale
# [8] = Concentration 10, MEAN, 15-point scale
# [9] = Concentration 10, MIN, 15-point scale
# [10] = Concentration 100, MAX, 15-point scale
# [11] = Concentration 100, MEAN, 15-point scale
# [12] = Concentration 100, MIN, 15-point scale
substance,measurement,setting,value
[pGlu]-Cys-Val [FE-38],Mineral/Flinty aromatic in solution as the concentration increases,1.0 to 100 ppb,increases very slightly
same,Salt perception level in solution as the concentration increases,1.0 to 100 ppb,increase very slightly in-mouth at 10 ppb
same,Umami aromatic in solution as the concentration increases,1.0 to 100 ppb,increase very slightly in-mouth at 10 ppb
same,Umami feeling factor in solution as the concentration increases,1.0 to 100 ppb,shows no distinct pattern
same,Mineral/Flinty aromatic in solution as the concentration increases,[1],increase very slightly
same,Salt perception level in solution as the concentration increases,[1],increase very slightly
same,Umami aromatic in solution as the concentration increases,[1],increase very slightly
same,Astringent,"1.0 ppb, mean evaluation score",0.0
same,Bitter,"1.0 ppb, mean evaluation score",0.0
same,Flinty/Mineral,"1.0 ppb, mean evaluation score",1.0
same,Metallic,"1.0 ppb, mean evaluation score",0.0
same,Numbing,"1.0 ppb, mean evaluation score",0.0
same,Salt,"1.0 ppb, mean evaluation score",3.1
same,Sour,"1.0 ppb, mean evaluation score",0.0
same,Sweet,"1.0 ppb, mean evaluation score",0.0
same,Umami,"1.0 ppb, mean evaluation score",0.2
same,Umami FF,"1.0 ppb, mean evaluation score",0.7
same,Astringent,[2],0.0
same,Bitter,[2],0.2
same,Flinty/Mineral,[2],1.1
same,Metallic,[2],0.0
same,Numbing,[2],0.0
same,Salt,[2],3.7
same,Sour,[2],0.0
same,Sweet,[2],0.2
same,Umami,[2],0.5
same,Umami FF,[2],1.8
same,Astringent,[3],0.0
same,Bitter,[3],0.2
same,Flinty/Mineral,[3],1.3
same,Metallic,[3],0.0
same,Numbing,[3],0.0
same,Salt,[3],3.7
same,Sour,[3],0.0
same,Sweet,[3],0.2
same,Umami,[3],0.5
same,Umami FF,[3],1.7
same,Atringent,[4],0.0
same,Bitter,[4],0.0
same,Metallic,[4],0.0
same,Mineral/Flinty,[4],1.5
same,Numbing,[4],0.0
same,Salt,[4],3.5
same,Sour,[4],0.0
same,Sweet,[4],0.0
same,Umami,[4],1.0
same,Umami/brothy,[4],1.0
same,Atringent,[5],0.0
same,Bitter,[5],0.0
same,Metallic,[5],0.0
same,Mineral/Flinty,[5],1.0
same,Numbing,[5],0.0
same,Salt,[5],3.1
same,Sour,[5],0.0
same,Sweet,[5],0.0
same,Umami,[5],0.7
same,Umami/brothy,[5],0.2
same,Atringent,[6],0.0
same,Bitter,[6],0.0
same,Metallic,[6],0.0
same,Mineral/Flinty,[6],0.5
same,Numbing,[6],0.0
same,Salt,[6],2.8
same,Sour,[6],0.0
same,Sweet,[6],0.0
same,Umami,[6],0.0
same,Umami/brothy,[6],0.0
same,Atringent,[7],0.0
same,Bitter,[7],0.8
same,Metallic,[7],0.0
same,Mineral/Flinty,[7],1.5
same,Numbing,[7],0.0
same,Salt,[7],4.0
same,Sour,[7],0.0
same,Sweet,[7],1.0
same,Umami,[7],3.0
same,Umami/brothy,[7],1.0
same,Atringent,[8],0.0
same,Bitter,[8],0.2
same,Metallic,[8],0.0
same,Mineral/Flinty,[8],1.1
same,Numbing,[8],0.0
same,Salt,[8],3.7
same,Sour,[8],0.0
same,Sweet,[8],0.2
same,Umami,[8],1.8
same,Umami/brothy,[8],0.5
same,Atringent,[9],0.0
same,Bitter,[9],0.0
same,Metallic,[9],0.0
same,Mineral/Flinty,[9],0.8
same,Numbing,[9],0.0
same,Salt,[9],3.0
same,Sour,[9],0.0
same,Sweet,[9],0.0
same,Umami,[9],0.0
same,Umami/brothy,[9],0.0
same,Atringent,[10],0.0
same,Bitter,[10],0.8
same,Metallic,[10],0.0
same,Mineral/Flinty,[10],1.5
same,Numbing,[10],0.0
same,Salt,[10],4.0
same,Sour,[10],0.0
same,Sweet,[10],1.0
same,Umami,[10],3.8
same,Umami/brothy,[10],1.0
same,Atringent,[11],0.0
same,Bitter,[11],0.2
same,Metallic,[11],0.0
same,Mineral/Flinty,[11],1.3
same,Numbing,[11],0.0
same,Salt,[11],3.7
same,Sour,[11],0.0
same,Sweet,[11],0.2
same,Umami,[11],1.7
same,Umami/brothy,[11],0.5
same,Atringent,[12],0.0
same,Bitter,[12],0.0
same,Metallic,[12],0.0
same,Mineral/Flinty,[12],0.8
same,Numbing,[12],0.0
same,Salt,[12],3.5
same,Sour,[12],0.0
same,Sweet,[12],0.0
same,Umami,[12],0.5
same,Umami/brothy,[12],0.0
